The numbers were not newly measured in article PMC11238383, “A review on the cultivation, bioactive compounds, health-promoting factors and clinical trials of medicinal mushrooms Taiwanofungus camphoratus, Inonotus obliquus and Tropicoporus linteus” (Fungal Biology and Biotechnology, 2024), which cites them from elsewhere.

≈ marks a conversion by molar mass, not a printed value.

The test system of one data set is H1264. On the set-up: method as in Baek et al. [203]. The following applies: ref Baek et al. [203].
Another data set has as its system H1299. Set-up: method as in Baek et al. [203]. The following applies: ref Baek et al. [203].
The next data set has as its system Calu-6. Set-up: method as in Baek et al. [203]. The note with it: ref Baek et al. [203].
Data set [1] relates to Streptozotocin-induced diabetic C57BL/6J mice. On the set-up: method as in Kuo et al. [178]. The note with it: ref Kuo et al. [178].
The next data set deals with C57BL/6J mice. The following applies: 40 mg/kg/day versus Metformin 300 mg/kg/day; ref [174].
Data set [2] deals with C2C12 cells. On the set-up: method as in Kuo et al. [174]. The following applies: ref Kuo et al. [174].
The test system of data set [3] is Hepatitis C virus (HCV) protease. On the set-up: method as in My et al. [190]. The note with it: ref My et al. [190].
The subject of a further data set is breast cancer cells. On the set-up: method as in PMID 25656647. The following applies: ref [71].
In data set [4] the test system is Obesity-induced Wistar rats. On the set-up: method as in Chen et al. [181]. The note with it: ref Chen et al. [181].
Data set [5] has as its system Oxidative stress-induced HepG2 cells. Set-up: method as in Kumar et al. [180]. The following applies: pretreatment, after 24 h; ref Kumar et al. [180].
Data set [6] has as its system Chronic alcohol-induced liver disease in C57BL/6J (B6) mice. On the set-up: method as in Chang et al. [182]. The following applies: ref Chang et al. [182].
The subject of data set [7] is Streptozotocin-induced diabetic C57BL/6J mice. Set-up: method as in Kuo et al. [177]. The note with it: in vivo; ref Kuo et al. [177].
The subject of data set [8] is C2C12 cells. On the set-up: method as in Kuo et al. [177]. The following applies: in vitro; ref Kuo et al. [177].
The subject of data set [9] is High-fat diet-induced C57BL/6J mice. Set-up: method as in Lin et al. [175]. The following applies: ref Lin et al. [175].
Data set [10] has the same test system. On the set-up: method as in Lin et al. [175]. The note with it: ref Lin et al. [175]. The source holds these as a separate data set.
The test system is the same in data set [11]. Set-up: method as in Kuo et al. [178]. The following applies: ref Kuo et al. [178].
For data set [12], the system named is Ultraviolet B-irradiated BALB/cAnN.Cg-Foxn1nu/CrlNarl hairless mice. On the set-up: method as in Kuo et al. [184]. The following applies: topical 25 and 100 μM; ref Kuo et al. [184].
The subject of data set [13] is MCF7, MDA-MB-231, T24 and J82 cells. Set-up: method as in Lu et al. [232]. The following applies: ref Lu et al. [232].
Another data set concerns 3CL protease. On the set-up: method as in Li et al. [35], [38]. The following applies: ref Li et al. [35], [38].
Data set [14] has as its system Severe acute respiratory syndrome coronavirus 2 (SARS-CoV-2) virus-infected HepG2 cells. On the set-up: method as in Li et al. [35], [38]. The following applies: ref Li et al. [35], [38].
Data set [15] relates to Oleic and palmitic acids (O/P) lipid accumulation-induced HepG2 cells. On the set-up: method as in Chiu et al. [138]. The following applies: ref Chiu et al. [138].
For another data set, the system named is aldose reductase. On the set-up: method as in Lee et al. [136]. The following applies: ref Lee et al. [136].
Data set [16] deals with LPS-stimulated RAW264.7 cells. On the set-up: method as in Huang et al. [212], [243]. The following applies: ref Huang et al. [212], [243].
For another data set, the target named is H1N1 neuraminidase. The note with it: ref [13].
The conditions of data set [17]: ref Lee et al. [226].
A further data set deals with Influenza A H1N1 virus. Set-up: method as in Hwang et al. [13]. The note with it: 10 uM; ref Hwang et al. [13].
The subject of data set [18] is Streptozotocin-induced diabetic C57BL/6J mice. Set-up: method as in Lin et al. [176]. The following applies: ref Lin et al. [176].
The test system of data set [19] is Carbon tetrachloride (CCl4) liver damage induced-Sprague Dawley rats. On the set-up: method as in Parfenov et al. [216]. The following applies: I. obliquus; ref Parfenov et al. [216].
In the next data set the test system is Chang liver cells. On the set-up: method as in Parfenov et al. [216]. The following applies: I. obliquus; 10^−5 and 10^−3 g/L; ref Parfenov et al. [216].

For `CC(C)=CCC[C@@H](C=O)[C@H]1CC[C@@]2(C)C3=C(CC[C@]12C)[C@@]1(C)CC[C@H](O)C(C)(C)[C@@H]1CC3` [3β-hydroxylanosta-8,24-dien-21-al], the half-maximal inhibitory concentration (IC50) (in general, the concentration that inhibits the measured activity by half) in the data set on H1264 is 90.9 µg/mL (≈ 206 µM); in the data set with H1299 it was 128.0 µg/mL (≈ 290 µM); in the data set on Calu-6, 75.1 µg/mL (≈ 170 µM).
On to `C=C(CC[C@@H](C)[C@H]1CC[C@H]2C3=C(C(=O)C[C@]12C)[C@@]1(C)CC[C@@H](O)[C@](C)(O)[C@@H]1C[C@@H]3O)C(C)C(=O)O` (stereo partly shown) [Antcin K], for which the “FAS, CPT-1a, PPARα expression” value in data set [1] is “Fatty acid synthase (FAS) expression levels declined while hepatic expression levels of carnitine palmitoyl transferase 1a (CPT-1a) and peroxisome proliferator-activated receptor α (PPARα) rose”. Besides, in the data set with C57BL/6J mice, the antihyperglycemic effect entry is on record as “comparable to Metformin”. In addition, the “GLUT4 and phospho-Akt expression” value in the data set on C2C12 cells [2] is “Enhance membrane glucose transporter 4 (GLUT4) and phosphor-Akt expressions”.
Turning to `CC(C)=CCOc1ccc(C2=C(CC(C)C)C(=O)OC2=O)cc1` [Antrodin A], in [3], the “half-maximal inhibitory concentration (IC50)” value was “Antrodins A to E, except antrodin B, exhibited potent inhibitory effects against the HCV protease, with Antrodin A having the highest potency with a half-maximal inhibitory concentration (IC50) value of 0.9 µg/mL”.
For `COC1=C(OC)[C@H](O)[C@H](C/C=C(\C)CC/C=C(\C)CCC=C(C)C)[C@@H](C)C1=O` [Antroquinonol, antroquinonol], the migration and invasion entry with breast cancer cells was “inhibit the migration and invasion of breast cancer cells”. For the same compound, the hepatoprotective effect result in data set [4] is “Exerts hepatoprotective effects by inhibiting hepatic lipid accumulation”. In [5], the “rise in ALT and AST caused by ethanol” value is “Antroquinonol pretreatment considerably and dose-dependently decreased the rise in ALT and AST caused by ethanol after 24 h in HepG2 cells”.
Turning to `CC(C)[C@@H](C)/C=C/[C@@H](C)[C@H]1CC[C@H]2C3=CCC4C[C@@H](O)CC[C@]4(C)C3=CC[C@]12C` (stereo partly shown) [Antrosterol], in data set [6], the hepatoprotective findings result was “Reduction in serum/hepatic lipids, rise in output of fecal lipid/bile-acid output, amplified hepatic antioxidant activities, reduced serum alcohol level, decrease liver inflammation, fibrosis, serum AST/ALT and TNF-α/IL-1β”.
`C=C(CC[C@@H](C(=O)O)[C@H]1CC[C@@]2(C)C3=CC[C@H]4C(C)(C)[C@@H](O)CC[C@]4(C)C3=CC[C@]12C)C(C)C` [Dehydroeburicoic acid]: in data set [7], the “decrease in blood glucose level” value is 43.6–46.5%. For the same compound, the GLUT4 expression entry in the data set on C2C12 cells [8] is recorded as “Higher expression of GLUT4”.
For the compound `C=C(CC[C@@H](C(=O)O)[C@H]1CC[C@@]2(C)C3=C(CC[C@]12C)[C@@]1(C)CC[C@H](O)C(C)(C)[C@@H]1CC3)C(C)C` [Eburicoic acid], the “PPAR-α expression in the liver” value in [9] is “Increased expression of PPAR-α in the liver which facilitated fatty acid oxidation and the reduction of lipid levels”. Moreover, the “AMPK phosphorylation, Akt, membrane GLUT4” value in data set [10] was “Increase AMPK phosphorylation, Akt, and membrane GLUT4 level”.
Consider `CC(C)[C@@H](C)/C=C/[C@@H](C)[C@H]1CC[C@H]2C3=CCC4C[C@@H](O)CC[C@]4(C)C3=CC[C@]12C` (stereo partly drawn) [Ergostatrien-3β-ol], for which, in data set [11], the “visceral adipocyte size, hepatic ballooning” value is “Reduced visceral adipocyte size and induced hepatic ballooning degeneration”. For the same compound, the “MMP-1, IL-6, iNOS, NF-κB in skin” value in data set [12] was “Significant inhibition of metalloproteinase-1 (MMP-1), IL-6, iNOS and NF-κB in skin”.
Take `CC(=O)/C=C(O)/C=C/c1ccc(O)c(O)c1` [Hispolon, hispolon]: the “suppression of cancer cells” value in [13] was “Suppressed p53 mutant (MDA-MB-231, T24, and J82) and wild-type (MCF7) cells regardless of p53 status Apoptosis characterized by chromatin condensation and poly (ADP-ribose) polymerase (PARP) increase”.
`O=c1cc(O)cc([C@H]2c3c(cc(/C=C/c4ccc(O)c(O)c4)oc3=O)O[C@@H]2c2ccc(O)c(O)c2)o1` [Hypholomine B, hypholomine B]: the 3CL protease entry in the data set with 3CL protease is “Inhibition of 3CL protease”. For the same compound, the ACE2 gene expression entry in data set [14] was “Reduced the expression of angiotensin-converting enzyme 2 (ACE2) gene”. In addition, the lipid accumulation result in data set [15] is “Significant reduction in lipid accumulation”. In addition, the aldose reductase inhibition result in the data set on aldose reductase was “capable of inhibiting aldose reductase”.
As for `CC1=CC(=O)/C(=C/c2ccc(O)c(O)c2)O1` [Inotilone, inotilone], the “NO, iNOS, NF-κB, MMP-9” value in [16] is “Inhibit NO production, iNOS, NF-κB, and MMP-9 expressions, and LPS-induced ERK, JNK, and p38 phosphorylation”. In addition, on H1N1 neuraminidase, the IC50 was 61 µM and the neuraminidase activity result was “inhibit neuraminidase activity”. Also, in [17], the antioxidant activity entry was “Potent antioxidant activity, with higher antioxidant activity than BHA and Trolox in FRAP assay”. Besides, the visible cytopathic effects in the data set on Influenza A H1N1 virus is 10 uM of both inhibited the formation of visible cytopathic effects, with IC50 values lower than Oseltamivir.
For `C=C(CC[C@@H](C(=O)O)[C@H]1C[C@H](O)[C@@]2(C)C3=C(CC[C@]12C)[C@@]1(C)CC[C@H](O)C(C)(C)[C@@H]1CC3)C(C)C` [Sulphurenic acid], in [18], the “insulin and HbA1c” value is “Rise of insulin levels and reduction in the concentration of glycated hemoglobin (HbA1c)”. Further, the “PPAR-α expression in the liver” value in data set [9] was “Increased expression of PPAR-α in the liver which facilitated fatty acid oxidation and the reduction of lipid levels”.
For Melanin, in data set [19], the liver damage findings result was “Decrease in fat buildup, steatosis, necrosis”. Also, the “increase in viability of liver cells intoxicated with d-galactosamine” value with Chang liver cells was 2–2.5 times.
